Values of other authors in patent US20170157095A1, “ALLISARTAN ISOPROXIL SOLID DISPERSION AND PHARMACEUTICAL COMPOSITION” (SHENZHEN SALUBRIS PHARMACEUTICALS CO., LTD, priority 2014, published 2017).

solubility in water: low
SMILES: CCCCc1nc(Cl)c(C(=O)OCOC(=O)OC(C)C)n1Cc1ccc(-c2ccccc2-c2nnn[nH]2)cc1 [Allisartan isoproxil, 2-butyl-4-chloro-1-[2′-(1H-tetrazol-5-yl)-1,1′-biphenyl-methyl]-imidazole-5-carboxylic acid, 1-[(isopropoxy)-carbonyloxy]-methyl ester]
